# Where two headings read alike, the source gives them in different places.
# Columns and labels:
# [1] = test system: 786-O; test: Cell proliferation (Alamar Blue) assay, 786-O; assay type: cell-based, human; settings: Homo sapiens, 786-0, 24 h, Table B-3, 786-O cells
# Protocol: (§1) Cell viability assay was performed to assess the potency of the compounds in human cancer cell lines 786-0 (renal cell carcinoma) and SJSA-1 (osteosarcoma). Additional cell lines, such as pancreatic cancer cell lines (Panc 02.13, BxPC-3, Panc 12, Panc 02.03, Panc 6.03, PSN-1, HPAC, and Capan-1), prostate cancer cell lines (PC-3, DU145, 22Rv1, NCI-H660, BPH1, LNCaP, BM-1604, and MDA PCa 2b), etc., can be tested in a similar method.
# (§2) Cells (SJSA-1, 786-0 and A431) were seeded (5000 cells/100 μL/well) in 96-well tissue culture plate and incubated at 37° C./5% CO2 for 16-24 hours. The cells were then treated with compounds (25 μL of 5×). The compound concentrations were 10-0.0005 μM prepared in 3-fold serial dilutions with final DMSO concentration of 1%. The plates were then incubated for 24 h at 37° C./5% CO2 in a moist environment. Then Alamar Blue™ reagent (final concentration 1×-12.5 μL) was added to each well and incubated for 1.5 hours at 37° C./5% CO2. The plates were read on fluorescence reader at 540 nm excitation and 590 nm emission wavelengths. The IC50 values were subsequently determined using a sigmoidal dose-response curve (variable slope) in GraphPad Prism® 5 software. Table A-3, Table B-3 and Table C-3 show cell proliferation data for certain compounds as described herein.
# [2] = test system: SJSA-1; test: Cell proliferation (Alamar Blue) assay, SJSA-1; assay type: cell-based, human; settings: Homo sapiens, SJSA-1, 24 h, Table B-3, head prints SJSB-1, 24 h, read-out: IC50 (μM) SJSB-1
# Protocol: as §1, §2
# [3] = test system: A431; test: Cell proliferation (Alamar Blue) assay, A431; assay type: cell-based, human; settings: Homo sapiens, A-431, 24 h, Table B-3, A431 cells
# Protocol: as §1, §2
# [4] = Kinetic solubility (PBS, pH 7.4); assay type: physicochemical; settings: for solubility kinetic: aqueous buffer, kinetic from dmso stock
# [5] = Rat hepatocyte metabolic stability; assay type: in vitro ADME; settings: for half-life / hepatocyte CLint: rat hepatocytes; for half-life: read-out: rat hepatocytes T1/2; for hepatocyte CLint: read-out: rat hepatocytes h Clintr (μL/min/10^6 cells)
# [6] = Human hepatocyte metabolic stability; assay type: in vitro ADME; settings: for half-life / hepatocyte CLint: human hepatocytes; for half-life: read-out: human hepatocytes T1/2; for hepatocyte CLint: read-out: human hepatocytes h Clintr (μL/min/10^6 cells)
# [7] = Human blood stability; assay type: in vitro ADME
# [8] = Equilibrium solubility at different pHs and with SBECD; assay type: physicochemical; settings: thermodynamic from solid
# [9] = Rat IV pharmacokinetics (2 mg/kg); assay type: in vivo; settings: male, SD, plasma
# Source text: Institutional Animal Ethical Committee (IAEC) of Jubilant Biosys (IAEC/JDC/2019/188R (for Mice) and IAEC/JDC/2019/189R (for Rat) nominated by CPCSEA (Committee for the Purpose of Control and Supervision of Experiments on Animals) approved the mice and rat pharmacokinetic experiments. Male Balb/c mice (˜6-8 weeks old with body weight range of 22-25 g) and male SD rats (6-8 weeks old with body weight range of 200-250 g) were procured from Vivo Biotech, Hyderabad, India. Animals were quarantined in Jubilant Biosys Animal House for a period of 7 days with a 12:12 h light: dark cycles, and prior to the study the animals were stratified as per body weight.
# B) Procedure for rat: Intravenous and oral pharmacokinetics study was done at a dose 2 and 10 mg/kg at dose volume of 2 and 10 mL/Kg. Serial blood sampling was done and at each time point (˜200 μL) were collected from retro-orbital plexus at 0.083 (Only for IV), 0.25, 0.5, 1, 2, 4, 8, 10 (only for PO) and 24 h. Blood samples were collected in tubes containing K2.EDTA as anticoagulant and centrifuged for 5 min at 10,000 rpm in a refrigerated centrifuge (Biofuge, Heraeus, Germany) maintained at 4° C. for plasma separation.
# Group I (IV) received test compound intravenously by tail vein at 2 mg/Kg in solution formulation prepared using 30% Kolliphore EL in WFI; dose volume: 2 mL/Kg; strength: 1 mg/mL.
# Blood concentration-time data of test compound was analyzed by non-compartmental method using Phoenix WinNonlin Version 8.1.
# [10] = aqueous with cosolvent or surfactant or cyclodextrin, 20% SBECD (sulfobutyl ether cyclodextrin), read-out: Eq. solubility 20% SBECD
# [11] = aqueous buffer, pH 3.0 PBS buffer, read-out: Eq. solubility pH 3.0 PBS buffer
compound,measurement,setting,value
C#CC(=O)N1[C@@H](CCCC)Cc2c([nH]c3c(F)cc(F)cc23)[C@@H]1c1ccc(NC(=O)OCC)cc1 [Compound B-35],IC50,[1],0.01 µM
same,IC50,[2],0.019 µM
same,IC50,[3],6.6 µM
same,"Kinetic solubility (PBS, pH 7.4, μM)",[4]; Table B-7,<1 μM
same,solubility kinetic,[4]; Table B-4,< 1 µM
same,rat hepatocytes extr. Ratio,[5],0.78
same,rat hepatocytes % met @ 180 min,[5],94%
same,half-life,[5],1.13 h
same,hepatocyte CLint,[5],41 µL/min/1e6 cells
same,human hepatocytes extr. Ratio,[6],0.8
same,human hepatocytes % met @ 180 min,[6],73%
same,half-life,[6],1.63 h
same,hepatocyte CLint,[6],28 µL/min/1e6 cells
same,human blood stability % remaining,[7]; 15 min,107%_15
same,human blood stability % remaining,[7]; 30 min,31%_30
same,human blood stability % remaining,[7]; 45 min,15%_45
same,human blood stability % remaining,[7]; 60 min,8.4%_60
same,human blood stability % remaining,[7]; 120 min,0%_120
same,solubility,[8]; [10],10 µg/mL
C#CC(=O)N1[C@@H](CC2CC2)Cc2c([nH]c3ccccc23)[C@@H]1c1ccc(NC23CC4CC(CC(C4)C2)C3)cc1 [Compound B-37],IC50,[1],0.001 µM
same,IC50,[2],0.004 µM
same,IC50,[3],4.6 µM
same,solubility kinetic,[4]; Table B-4,< 1 µM
same,rat hepatocytes extr. Ratio,[5],0.64
same,rat hepatocytes % met @ 180 min,[5],74%
same,half-life,[5],2.28 h
same,hepatocyte CLint,[5],20 µL/min/1e6 cells
same,human hepatocytes extr. Ratio,[6],0.58
same,human hepatocytes % met @ 180 min,[6],38%
same,half-life,[6],4.5 h
same,hepatocyte CLint,[6],10 µL/min/1e6 cells
same,AUC(0-t),[9]; read-out: Rat IV-PK AUC (0-t),346 ng·h/mL
same,clearance,[9]; read-out: Rat IV-PK CL,115 mL/min/kg
same,half-life,[9]; read-out: Rat IV-PK T1/2,3.3 h
same,Vd,[9]; read-out: Rat IV-PK Vd,32 L/kg
C#CC(=O)N1[C@@H](CCCC)Cc2c([nH]c3c(F)cc(F)cc23)[C@@H]1c1cnn(C)c1 [Compound B-33],IC50,[1],0.121 µM
same,IC50,[2],0.257 µM
same,IC50,[3],> 10 µM
same,solubility,[8]; [11],< 1 µg/mL
same,solubility,[8]; [10],> 1090 µg/mL
C#CC(=O)N1[C@@H](CCCC)Cc2c([nH]c3c(F)cc(F)cc23)[C@@H]1c1ccc(N2CCN(C(C)=O)CC2)c(C#N)c1 [Compound B-32],IC50,[1],0.018 µM
same,IC50,[2],0.029 µM
same,solubility kinetic,[4]; Table B-7,< 1 µM
same,solubility,"[8]; aqueous buffer, pH 3.0, read-out: Eq. solubility pH 3.0",< 1 µg/mL
same,solubility,[8]; [11],< 1 µg/mL
same,solubility,[8]; [10],9 to 18 µg/mL
C#CC(=O)N1[C@@H](CCCC)Cc2c([nH]c3c(F)cc(F)cc23)[C@@H]1CCCCCCCC [Compound B-79],IC50,[1],0.07 µM
same,IC50,[2],0.08 µM
same,IC50,[3],9.4 µM
C#CC(=O)N1[C@@H](CCCC)Cc2c([nH]c3ccccc23)[C@@H]1c1ccc(C(=O)NCC2(O)CCC2)cc1 [Compound B-16],IC50,[1],0.007 µM
same,IC50,[2],0.029 µM
same,IC50,[3],6.4 µM
C#CC(=O)N1[C@@H](CCCC)Cc2c([nH]c3c(F)cc(F)cc23)[C@@H]1c1nccn1C [Compound B-24],IC50,[1],0.123 µM
same,IC50,[2],0.167 µM
same,IC50,[3],> 10 µM
C#CC(=O)N1[C@@H](CCCC)Cc2c([nH]c3c(F)cc(F)cc23)[C@@H]1COCCOC [Compound B-80],IC50,[1],0.043 µM
same,IC50,[2],0.093 µM
same,IC50,[3],6.8 µM

# Source: patent US20220227765A1, “PYRIDO-INDOLE ANALOGUES AS GPX4 INHIBITORS” (Ferro Therapeutics, Inc., priority 2019, published 2022)
